Test results published in US6962976B2, “Human TREK2, a stretch- and arachidonic acid-sensitive K+ channel activated by inhalational anesthetics and niluzole” (Centre National de la Recherche Scientifique-CNRS, priority 2000, dated 2005).
Blank lines part the entries; values can stand above or below the compound they belong to.

Key:
[1] = biological target: T1, TREK2 (Homo sapiens, UniProt P57789); assay: Whole-cell patch-clamp of TREK2 currents in transfected COS cells; type: cell-based; settings: for effect on TREK2 current in COS cells transfected with only TREK2: no receptor co-expressed; for activation of TREK2 by fatty acids and lysophospholipids (in words): whole-cell current
T1 construct: expressed in transfected cells; host or cells: COS cells
T1 sequence (P57789 1-538): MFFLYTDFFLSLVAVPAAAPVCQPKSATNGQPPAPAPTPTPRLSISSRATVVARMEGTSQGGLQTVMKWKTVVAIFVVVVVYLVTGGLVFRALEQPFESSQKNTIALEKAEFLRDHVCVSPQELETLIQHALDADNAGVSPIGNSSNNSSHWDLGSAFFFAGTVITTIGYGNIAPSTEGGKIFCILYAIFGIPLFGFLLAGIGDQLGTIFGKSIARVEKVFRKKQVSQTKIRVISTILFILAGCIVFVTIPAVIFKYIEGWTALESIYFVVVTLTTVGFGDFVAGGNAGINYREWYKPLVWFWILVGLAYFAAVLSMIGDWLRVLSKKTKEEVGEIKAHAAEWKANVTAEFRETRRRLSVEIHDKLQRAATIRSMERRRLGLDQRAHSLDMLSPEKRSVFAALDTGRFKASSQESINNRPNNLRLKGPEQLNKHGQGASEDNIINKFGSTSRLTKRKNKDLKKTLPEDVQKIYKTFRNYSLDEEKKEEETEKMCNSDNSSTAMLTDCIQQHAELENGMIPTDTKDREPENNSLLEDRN
Method: For inside-out patch recordings, pipettes were filled with the EXT solution and the bathing solution was the INT solution buffered either at pH 7.3 or at pH 5.6 in the internal acidosis experiments. Cells were continuously superfused with a microperfusion system during the experiment (0.2 ml per min) done at room temperature. A RK400 patch-clamp amplifier was used for whole-cell and single-channel recordings (Bio-Logic, Claix, France). Single-channel data were low-pass filtered at 5 KHz and digitized at 50 KHz using a DAT recorder (Bio-Logic, Claix, France). pClamp software was used to analyze whole-cell data and Biopatch software (Bio-Logic) to analyze single-channel data.
Concentrations of volatile anesthetics were adjusted from saturated solutions (isoflurane, 15.3 mM; halothane, 17.5 mM and chloroform, 66.6 mM) in saline at room temperature (16). Mechanical stimulation was applied through an open loop pressure generating system and monitored at the level of the patch pipette by a calibrated pressure sensor (17).

[2] = system: TREK2 co-expressed with 5HT4sR
Method: (§1) The voltage-clamp protocol consists of a voltage-ramp of 800 ms duration starting from a holding potential of −80 mV applied every 10 s. The current was monitored at +100 mV.
(§2) COS cells were seeded at a density of 20,000 cells per 35 mm dish, 24 h prior transfection. Cells were transiently transfected by the classical DEAE-dextran method with 0.2 μg of pIRES-CD8. TREK2 with or without mGluR1, mGluR2 or 5HT4sR expression vectors (a generous gift of Drs J P Pin and A Dumuis, Montpellier, France).
(§3) Transfected cells were visualized 48 h after transfection using the anti-CD8 antibody-coated beads method.
(§4) TREK2 was co-expressed with 5HT4sR, a Gs-coupled receptor. […] A third type of G-protein coupled receptor was co-expressed with TREK2. This receptor is the Gq-coupled mGluR1 receptor. […] The Gq-protein is commonly associated with activation of phospholipase C and the consequent production of diacylglycerol (DAG) and inositol 1,4,5-triphosphate (IP 3). Ultimately, DAG leads to activation of PKC and IP 3 to an increase of intracellular Ca^2+.

[3] = biological target: T2, TREK1 (Homo sapiens, UniProt O95069); settings: cited from earlier work
T2 sequence (O95069 1-426): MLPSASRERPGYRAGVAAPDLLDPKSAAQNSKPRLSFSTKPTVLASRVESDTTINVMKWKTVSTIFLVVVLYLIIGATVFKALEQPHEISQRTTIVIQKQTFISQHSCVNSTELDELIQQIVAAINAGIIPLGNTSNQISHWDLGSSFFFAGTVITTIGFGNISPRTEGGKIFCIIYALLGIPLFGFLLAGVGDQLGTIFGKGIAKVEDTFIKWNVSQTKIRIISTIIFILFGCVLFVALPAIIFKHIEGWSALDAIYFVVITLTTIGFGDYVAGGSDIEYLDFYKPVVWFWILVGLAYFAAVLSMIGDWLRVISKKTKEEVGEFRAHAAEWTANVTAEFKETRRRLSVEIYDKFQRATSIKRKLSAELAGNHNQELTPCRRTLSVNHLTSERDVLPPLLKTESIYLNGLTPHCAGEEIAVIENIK

[4] = system: TREK2 co-expressed with mGluR2; assay: Whole-cell TREK2 current, TREK2 co-expressed with Gi-coupled mGluR2 in COS cells; type: cell-based, human
Method: as §1, §2, §3, §4

[5] = biological target: T3, TRAAK (Homo sapiens, UniProt Q9NYG8); settings: cited from earlier work
T3 sequence (Q9NYG8 1-393): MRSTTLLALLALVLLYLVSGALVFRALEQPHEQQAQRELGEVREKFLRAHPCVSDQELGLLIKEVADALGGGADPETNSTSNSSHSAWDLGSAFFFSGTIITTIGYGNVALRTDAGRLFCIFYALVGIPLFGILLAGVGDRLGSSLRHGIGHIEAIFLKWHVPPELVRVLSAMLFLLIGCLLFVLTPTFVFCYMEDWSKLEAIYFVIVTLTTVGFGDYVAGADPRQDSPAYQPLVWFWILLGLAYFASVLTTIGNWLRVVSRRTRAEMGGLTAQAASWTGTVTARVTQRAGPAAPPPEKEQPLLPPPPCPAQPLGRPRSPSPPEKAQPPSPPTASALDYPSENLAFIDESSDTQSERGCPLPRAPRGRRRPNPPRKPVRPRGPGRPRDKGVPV

[6] = 1 mM, 0 mV (voltage given for halothane only)

fold increase of TREK2 current [1, 6]: 1.9±0.1 fold increase
Compound: FC(F)OC(Cl)C(F)(F)F (centres unmarked) [isoflurane]

activation of TREK2 by fatty acids and lysophospholipids (in words) [1]: activated
Compound: CCCCC/C=C\C/C=C\CCCCCCCC(=O)O [linoleic acid]

activation of TREK2 by fatty acids and lysophospholipids (in words) [1]: not
Compound: CCCCCCCCCCCCCCCC(=O)O [palmitic acid]

effect on TREK2 current (in words) ([1]; current monitored at +100 mV): activated
time course of TREK2 activation (in words) ([1]; followed by a decrease of the activity corresponding to an inhibition): transient
Compound: Nc1nc2ccc(OC(F)(F)F)cc2s1 [riluzole]
activation of TREK1 (in words) [3]: transiently activated
activation of TRAAK (in words) [5]: permanently activated

activation of TREK2 by fatty acids and lysophospholipids (in words) [1]: activated
Compound: lysophosphatidylcholine

fold increase of TREK2 current ([1]; 10 μM, at 0 mV): 5.1±0.6 fold increase
Compound: lysophosphatidylinositol

Further lines, the compound ahead of its results:

Compound: NCCc1c[nH]c2ccc(O)cc12 [5-HT, 5-hydroxytryptamine]
effect on TREK2 current in COS cells transfected with only TREK2 [1]: No effect
effect on TREK2 activity after receptor activation [2]: decrease of TREK2 activity

Compound: [Ba+2] [Ba^2+]
sensitivity of TREK2 currents ([1]; 1 mM): insensitive

Compound: Nc1ncnc2c1nc(Sc1ccc(Cl)cc1)n2[C@@H]1O[C@@H]2COP(=O)(O)O[C@H]2[C@H]1O [CPT-cAMP]
inhibition of TREK2 activity ([1]; 500 μM, at 0 mV, n=8): 50±5%

Compound: [Ca+2] [Ca^2+]
inhibition of TREK2 (in words) ([1]; 1 μM in the recording pipette): nor the addition of Ca^2+ in the recording pipette (1 μM) were able to induce an inhibition

Compound: CCCCCCCCCCCCCC(=O)O[C@@H]1[C@@H](C)[C@@]2(O)[C@@H](C=C(CO)C[C@]3(O)C(=O)C(C)=C[C@@H]23)[C@@H]2C(C)(C)[C@]12OC(C)=O [PMA]
inhibition of TREK2 (in words) ([1]; 100 nM): neither the application of the PKC-activator PMA (100 nM) nor the addition of Ca^2+ in the recording pipette (1 μM) were able to induce an inhibition

Compound: C=C[C@H]1C[N@@]2CC[C@H]1C[C@@H]2[C@@H](O)c1ccnc2ccc(OC)cc12 [Quinidine]
inhibition at 100 µM ([1]; COS, 100 μM): 50%

Compound: CCCCC/C=C\C/C=C\C/C=C\C/C=C\CCCC(=O)O [arachidonic acid]
fold increase of TREK2 current ([1]; 10 μM, at 0 mV): 8.4±1.9 fold increase

Compound: ClC(Cl)Cl [chloroform]
fold increase of TREK2 current [1, 6]: 1.8±0.1 fold increase
relative efficiency of anesthetics on TREK1 ([3]; 1 mM): more effective than halothane and isoflurane

Compound: N[C@@H](CCC(=O)O)C(=O)O [glutamate]
effect on TREK2 current in COS cells transfected with only TREK2 [1]: No effect
effect on TREK2 activity after receptor activation [4]: stimulation of TREK2 activity
time to reverse the TREK2 increase after washing [4]: more than 10 minutes

Compound: FC(F)(F)C(Cl)Br (centres unmarked) [halothane]
fold increase of TREK2 current ([1]; 0.25 mM, at +100 mV, n=10): 1.4±0.1 fold increase
fold increase of TREK2 current ([1]; 0.5 mM, at +100 mV, n=10): 2.6±0.3 fold increase
fold increase of TREK2 current [1, 6]: 2.3±0.3 fold increase

Compound: CC[N+](CC)(CC)CC [tetraethylammonium]
sensitivity of TREK2 currents ([1]; 10 mM): insensitive
